Reference: US9023864B2, “Indole derivatives as CRTH2 receptor antagonists” (Merck Sharp & Dohme Corp., priority 2009, dated 2015)

These compounds were tested against T1, hCRTH2 (Homo sapiens, UniProt Q9Y5Y4) (assay: Radioligand binding assay ([3H]PGD2 competition, membranes from HEK-hCRTH2 cell line)). Conditions: 0.7 nM [3H]PGD2, membrane protein from HEK-hCRTH2 cell line, 60 min at room temperature; values given as ranges.
T1 construct: expressed in transfected cells; host or cells: HEK cell line expressing hCRTH2 (HEK-hCRTH2); membranes
T1 sequence (Q9Y5Y4 1-395): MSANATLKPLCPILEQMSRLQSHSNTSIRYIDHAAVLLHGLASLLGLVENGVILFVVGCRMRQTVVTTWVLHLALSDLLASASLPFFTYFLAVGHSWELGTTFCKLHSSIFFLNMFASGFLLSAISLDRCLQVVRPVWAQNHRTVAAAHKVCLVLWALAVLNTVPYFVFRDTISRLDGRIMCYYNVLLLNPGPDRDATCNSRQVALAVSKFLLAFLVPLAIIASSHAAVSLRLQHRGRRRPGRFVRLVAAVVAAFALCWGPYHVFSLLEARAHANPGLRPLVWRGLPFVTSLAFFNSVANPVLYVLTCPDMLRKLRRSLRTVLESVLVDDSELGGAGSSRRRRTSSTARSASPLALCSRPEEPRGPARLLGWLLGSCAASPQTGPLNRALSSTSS
Method: Radioligand Binding Assay.
Radioligand binding assays were performed at room temperature in 10 mM HEPES/KOH pH 7.4, 1 mM EDTA containing 10 mM MnCl2 and 0.7 nM [^3H]PGD2 (NEN, 171 Ci mmol^−1), in a final volume of 0.2 ml. Competing ligands were diluted in dimethylsulfoxide (Me2SO) that was kept constant at 1% (v/v) of the final incubation volume. The reaction was initiated by the addition of 8-20 μg of membrane protein prepared from a HEK-hCRTH2 cell line. Total and non-specific binding were determined in the absence and the presence of 10 μM PGD2, respectively. Under these conditions, specific binding (total minus non-specific) of the radioligand to the receptor reached equilibrium within 50 min and was stable up to 180 min. The reaction was routinely conducted for 60 min at room temperature and terminated by rapid filtration through prewetted Unifilters GF/C (Packard), using a Tomtec MachIII semi-automated harvester (for HEK-hCRTH2). The filters were then washed with 4 ml of the same buffer and residual radioligand bound to the filter was determined by liquid scintillation counting following equilibration in 25 μl Ultima Gold F™ (Unifilter) (Packard). The Ki (in nM) values for representative compounds of the present invention are as follows: ≦5: Examples 3.1, 5.1, 6.1, 7.1, 8.1/8A, 9.1, 26, 27.1, 28.1, 29.1, 30, 31.1, 31.3, 32.1, 32.4, 33.1, 34.1, 36.1, 38.1, 39, 40, 41; >5 and ≦10: Examples, 4, 5.3, 29.2; >10 and ≦50: Examples 1, 10, 14, 21, 22, 25, 31.4, 32.3, 35, 36.2, 37; >50 and ≦100: Examples 2, 5.4, 6.2, 27.2, 28.2; >100: Examples 3.2, 5.2, 7.2, 8.2, 9.2, 11, 12, 13, 15, 16, 17, 18, 19, 20, 23, 24, 31.2, 32.2, 33.2, 34.2, 38.2.

Compound	Ki [µM]
CS(=O)(=O)c1ccc(-c2cn(C3CCc4c(CC(=O)O)c5ccccc5n4C3)nn2)cc1 (stereo not drawn) [Example 15, {7-[4-(4-Methanesulfonyl-phenyl)-[1,2,3]triazol-1-yl]-6,7,8,9-tetrahydropyrido[1,2-α]indol-10-yl}-acetic acid]	> 0.1
CC(C)(O)c1ccc(-c2cn(C3CCc4c(CC(=O)O)c5ccccc5n4C3)nn2)cc1 (stereo not drawn) [Example 16, (7-{4-[4-(1-Hydroxy-1-methyl-ethyl)-phenyl]-[1,2,3]triazol-1-yl}-6,7,8,9-tetrahydropyrido[1,2-α]indol-10-yl)-acetic acid]	> 0.1
O=C(O)Cc1c2n(c3ccccc13)CC(n1cc(-c3ccc(C(F)(F)F)cc3)nn1)CC2 (stereo not drawn) [Example 17, {7-[4-(4-Trifluoromethyl-phenyl)-[1,2,3]triazol-1-yl]-6,7,8,9-tetrahydropyrido[1,2-α]indol-10-yl}acetic acid]	> 0.1
O=C(O)Cc1c2n(c3ccccc13)CC(n1cc(-c3cccc4ccccc34)nn1)CC2 (stereo not drawn) [Example 18, [7-(4-Naphthalen-1-yl-[1,2,3]triazol-1-yl)-6,7,8,9-tetrahydropyrido[1,2-α]indol-10-yl]-acetic acid]	> 0.1
CN(C)c1ccc(-c2cn(C3CCc4c(CC(=O)O)c5ccccc5n4C3)nn2)cc1 (stereo not drawn) [Example 19, {7-[4-(4-Dimethylamino-phenyl)-[1,2,3]triazol-1-yl]-6,7,8,9-tetrahydropyrido[1,2-α]indol-10-yl}-acetic acid]	> 0.1
O=C(O)Cc1c2n(c3ccccc13)CC(n1nncc1-c1ccc(F)cc1)CC2 (stereo not drawn) [Example 20, {7-[5-(4-Fluoro-phenyl)-[1,2,3]triazol-1-yl]-6,7,8,9-tetrahydropyrido[1,2-α]indol-10-yl}-acetic acid]	> 0.1

The next lines start with the values.

Ki [µM]	Compound
0.005 to 0.01	O=C(O)Cc1c2n(c3ccccc13)CC(n1nncc1COc1c(Cl)cccc1Cl)CC2 (stereo not drawn) [Example 4, (7-{5-[(2,6-dichlorophenoxy)methyl]-1H-1,2,3-triazol-1-yl}-6,7,8,9-tetrahydropyrido[1,2-α]indol-10-yl)acetic acid]
≤ 0.005	O=C(O)Cc1c2n(c3c(F)cccc13)C[C@H](n1nncc1Cc1ccc(F)cc1)CC2 [Example 8.1, {(7R)-4-Fluoro-7-[5-(4-fluorobenzyl)-1H-[1,2,3]triazol-1-yl]-6,7,8,9-tetrahydropyrido[1,2-a]-indol-10-yl}-acetic acid]
0.01 to 0.05	O=C(O)Cc1c2n(c3ccccc13)CC(n1cc(-c3ccc(F)cc3)nn1)CC2 (stereo not drawn) [Example 10, {7-[4-(4-Fluoro-phenyl)-[1,2,3]triazol-1-yl]-6,7,8,9-tetrahydropyrido[1,2-α]indol-10-yl}-acetic acid]
> 0.1	CS(=O)(=O)NCCCCc1cn(C2CCc3c(CC(=O)O)c4ccccc4n3C2)nn1 (stereo not drawn) [Example 11, {7-[4-(4-Methanesulfonylamino-butyl)-[1,2,3]triazol-1-yl]-6,7,8,9-tetrahydropyrido[1,2-α]indol-10-yl}-acetic acid]
> 0.1	CC(C)C(O)c1cn(C2CCc3c(CC(=O)O)c4ccccc4n3C2)nn1 (stereo not drawn) [Example 12, {7-[4-(1-Hydroxy-2-methyl-propyl)-[1,2,3]triazol-1-yl]-6,7,8,9-tetrahydropyrido[1,2-α]indol-10-yl}-acetic acid]
> 0.1	CC(O)(c1ccccc1)c1cn(C2CCc3c(CC(=O)O)c4ccccc4n3C2)nn1 (stereo not drawn) [Example 13, {7-[4-(1-Hydroxy-1-phenyl-ethyl)-[1,2,3]triazol-1-yl]-6,7,8,9-tetrahydropyrido[1,2-α]indol-10-yl}-acetic acid]
0.01 to 0.05	O=C(O)Cc1c2n(c3ccccc13)CC(n1cc(COc3ccccc3)nn1)CC2 (stereo not drawn) [Example 14, [7-(4-Phenoxymethyl-[1,2,3]triazol-1-yl)-6,7,8,9-tetrahydropyrido[1,2-α]indol-10-yl]-acetic acid]
0.01 to 0.05	O=C(O)Cc1c2n(c3ccccc13)CC(n1nncc1COc1ccccc1)CC2 (stereo not drawn) [Example 21, [7-(5-Phenoxymethyl-[1,2,3]triazol-1-yl)-6,7,8,9-tetrahydropyrido[1,2-α]indol-10-yl]-acetic acid]
